Reference: US20100197712A1, “USE OF DOPAMINE STABILIZERS” (priority 2007, published 2010)
Where a name gives a salt, the structure may show the parent alone.

Legend:
[1] = system: habituated rats; assay: Motor activity of habituated rats in activity boxes; format: in vivo, Sprague-Dawley rats; conditions: s.c.
Procedure: (§1) Prior to testing, the rats were housed for approximately 1 week with free access to food and water, in groups of four or five in Macrolon type III cages in the animal facility of the Sahlgrenska Academy at Göteborg University. The experiments were approved by the animal ethics committee in Göteborg.
(§2) OSU6162, ACR16, apomorphine and (−)-3-PPP were dissolved in 0.9% saline. A few grains of ascorbic acid were added to apomorphine solutions to prevent oxidation of the drug. Haloperidol and amisulpride were dissolved in a minimum amount of acetic acid and diluted with 5.5% glucose. The solutions were adjusted to pH 5-7 with sodium bicarbonate. Aripiprazole was dissolved in a minimum amount of heated acetic acid, diluted in warm 5.5% glucose and adjusted to pH 4-5. All drugs were administered intraperitoneally (i.p.) or subcutaneously (s.c.) in volumes of 5 ml/kg. Control treatments consisted of the appropriate vehicle administered in accordance with the drug treatment at issue.
Rats were housed in a normal daylight cycle and testing was performed during daytime. Animals were introduced into sound attenuated, illuminated activity boxes (1/w/h: 40×40×20 cm) and were allowed to habituate in the new environment for 65 minutes. During the following 5 minutes test drugs were injected s.c., after which the rats were returned to the boxes for another 60 minutes. Five by five rows of photocell beams at floor level allowed a computer based-system to register horizontal activity. Motor activity is presented as accumulated number of unrepeated beam breaks, i.e. several consecutive breakings of one beam is counted as one beam break. The software was set to register behaviour from the rat's first introduction into the arena until it was finally removed from the box, i.e. for 130 minutes. Activity is presented separately for t=0-30 min and t=30-60 min after injection.
(§3) In several cases data from two or more experiments have been pooled. […] Confirmed outlying values (N=0-3 per experiment) were excluded from statistical analyses and graphical presentations. Data from the video tracking setting was analyzed with univariate general linear model (GLM). Following GLM analysis, comparisons versus the appropriate control groups were performed with Dunnet's post hoc test. […] Data obtained from activity boxes was analyzed with Kruskal-Wallis one-way analysis of variance by ranks. […] All statistical tests were two sided and p<0.05 was considered statistically significant.

[2] = system: active rats; assay: Video tracking: motor activity (velocity) of active rats; format: in vivo, Sprague-Dawley rats
Procedure: as §1, §2
(§4) The rats were housed in reverse daylight cycle and all handling of the animals was performed in dim light. Apomorphine was administered s.c. 5 minutes prior to testing, while all other drugs were injected i.p. or s.c. 30 minutes before testing. Single rats were introduced into rectangular arenas (l/w/h: 150×100×40 cm) illuminated indirectly by one infrared lamp (Neocom, South Korea). The rats' movements were recorded to digital (MPEG2) video files using an IR sensitive video camera (Panasonic WV-CPR480, lens: Panasonic LA-408C3) connected to a PC equipped with a MPEG-encoder (MVR1000^SX, Canopus Co.). […] Behavioural variables were extracted from the tracks in MatLab (The MathWorks, Inc., USA) with functions developed in this laboratory. Mean velocity was used to measure motor activity. Prior to calculation of velocity the tracks were subjected to a running mean filter, i.e. each sample was replaced by the mean of fifteen consecutive samples.
as §3

[3] = clinical dosages of at least 25 mg per day; cited from earlier work
[4] = target: dopamine D2 receptors (Homo sapiens, UniProt P14416); conditions: in-vitro binding, Sonesson et al. 1994; cited from earlier work
dopamine D2 receptors, sequence (P14416 whole entry): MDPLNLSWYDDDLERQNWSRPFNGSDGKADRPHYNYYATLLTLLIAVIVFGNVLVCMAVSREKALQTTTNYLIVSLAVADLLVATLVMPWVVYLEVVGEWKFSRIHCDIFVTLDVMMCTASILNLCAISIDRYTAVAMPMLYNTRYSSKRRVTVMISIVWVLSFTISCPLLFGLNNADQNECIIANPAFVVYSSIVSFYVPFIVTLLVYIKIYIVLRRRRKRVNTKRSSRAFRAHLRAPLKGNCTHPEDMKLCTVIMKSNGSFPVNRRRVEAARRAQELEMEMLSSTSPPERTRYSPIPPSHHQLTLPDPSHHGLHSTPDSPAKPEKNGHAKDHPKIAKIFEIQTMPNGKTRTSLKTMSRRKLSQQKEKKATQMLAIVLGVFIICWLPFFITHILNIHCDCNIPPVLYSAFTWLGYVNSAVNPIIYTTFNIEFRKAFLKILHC

[5] = target: T1, human D2l receptors (Homo sapiens, UniProt P14416); assay: Incorporation of GTPgammaS^35 in CHO-hD2l membranes; format: biochemical
T1 construct: expressed in transfected cells; host or cells: CHO (CHO-hD2l cells), membrane preparation
T1 sequence (P14416 whole entry): as above
Procedure: Membranes were stored at −80° C. at a concentration of 1 mg protein/ml buffer.
Dopamine-stimulated GTPgammaS^35 incorporation was determined using the following procedure: in a buffer containing 20 mM HEPES, 5 mM Mg Cl2, 100 mM NaCl, at pH 7.5, membranes ([…]) were incubated with vehicle, drugs and 3 μM GDP for 30 min at 30° C., total volume was 1.1 ml. […] The reaction was stopped by filtering the samples with a Brandel harvester on Whatmann GF/B filters. Filters were placed in liquid scintillation vials containing 10 ml of BCS scintillation fluid and counted the next day. All samples were run in triplicate.

[6] = system: mice pretreated with reserpine and alpha-methylpara-tyrosine; assay: Mouse model of Parkinsonism (reserpine and alpha-methyl-para-tyrosine pretreated mice); format: in vivo, NMRI mice
Procedure: Animals were pretreated with reserpine (10 mg/kg i.p.) and alpha-methylpara-tyrosine (500 mg/kg i.p.) 18 and 4 hours before the experiment, respectively, and were then treated with various i.p. doses of OSU6162, expressed in […], or saline (“ctr”). Immediately following injection the animals were placed in individual cages and video-taped from above for 60 min. Shown are the distances moved, means and S.E.M. N=5-6 per treatment group. Statistics: *P<0.05, **p<0.01, as compared with the controls.
In these experiments we used male NMRI mice weighting 25-30 g at the time of testing. The mice were pretreated with reserpine, 10 mg/kg i.p., 18 hours, and alpha-methyl-para-tyrosine HCl, 500 mg/kg i.p. 2 hours, respectively, before the experiment.
The actual experiment was started by injecting either OSU6162 in doses of 5, 25 or 125 μmol/kg i.p.or placebo (a physiological saline solution). Each dosage group consisted of 5-6 mice. Immediately after injection the mice were placed in individual cages and video taped from above for 60 min. Various aspects of motility were analysed from the video tapes.
Statistical calculations were performed with the non parametric Mann-Whitney U-test, and asterisks in the graph indicate significant differences compared to control group (*p<0.05; **p<0.01).

[7] = system: apomorphine induced hypomotility in rats; assay: Apomorphine induced hypomotility in rats (video tracking); format: in vivo, Sprague-Dawley rats
Procedure: FIG. 7. […] Test drugs were administered 30 minutes prior to registration. Motor activity was measured for 30 minutes as velocity in the video tracking setting. Statistical comparisons were made versus the apomorphine group with univariate general linear model, followed by Dunnet's post hoc test. *p<0.05; *p<0.01; ***p<0.001. FIG. 8.
as §4, §3

[8] = system: rats; assay: Preliminary experiment: rats in large illuminated arenas during daytime; format: in vivo
Description: As to the issues of illumination and daylight cycle, behavioural inhibition has been observed in ultraviolet (Rung et al., 2005b) or infrared light (current study) during the dark hours of the rats' diurnal rhythm. Based on how the light is perceived by humans, we presume that the ultraviolet and infrared light used in these studies is perceived by the rats as dim light and darkness respectively.

[9] = system: amphetamine-induced hyperactivity in rats; conditions: Natesan et al., 2006; cited from earlier work
[10] = system: rats; conditions: small activity boxes; pre-treatment 30 minutes; dark hours, light turned off; preliminary
[11] = Hartter et al., 2003; cited from earlier work
[12] = whole 60 min registration / either time interval
[13] = i.p., 30 min prior to 30 min tracking
[14] = apomorphine 0.16 μmol/kg s.c., test drug i.p. 30 min prior, dose range per drug

CCCN1CCC[C@@H](c2cccc(O)c2)C1 [(−)-3-PPP, S-(−)-3-[3-hydroxyphenyl]-1-propylpiperidine, reference compound]
motor activity (accumulated unrepeated beam breaks) [1, 12]: did not have any statistically significant effects on motor activity in either time interval
motor activity (velocity) ([2]; s.c., 30 min prior to 30 min tracking, OSU6162 50-200 μmol, (−)-3-PPP 2.5 and 10 μmol/kg): marked and dose-dependent inhibition on motor activity, that was statistically significant at all doses tested

CCCN1CCC[C@@H](c2cccc(S(C)(=O)=O)c2)C1 [(−)-OSU6162, S-(−)-3-[3-methylsulfonylphenyl]-1-propylpiperidine]
cardiac adverse effects [3]: QTc values higher than normal, cardiac arrhythmia, or heart rhythm abnormalities, such as torsades de pointes
Ki [4]: in the micromolar region
increase of the incorporation of GTPgammaS^35 ([5]; absence of dopamine, 100 to 10,000 nM (−)OSU6162): 8 to 11%
effect on GTPgammaS^35 incorporation ([5]; dopamine 10 to 100 nM, (−)-OSU6162 10 to 100 nM): caused an increased incorporation of GTPgammaS^35
effect on GTPgammaS^35 incorporation ([5]; dopamine 10 to 100 nM, (−)-OSU6162 1,000 to 10,000 nM): this increase was no longer seen
effect on GTPgammaS^35 incorporation ([5]; dopamine 1,000 and 10,000 nM, varied (−)-OSU6162 levels): similar, though flatter activity curves
motility (distance moved, 60 min) ([6]; OSU6162 5 μmol/kg i.p.): showed only minimal signs of motility
motility (distance moved, 60 min) ([6]; OSU6162 two higher doses (25, 125 μmol/kg i.p.)): significant, dose dependent increase in motility
dose at which a significant effect on motor activity shows up ([1]; later experiment with lower doses 6.25 and 12.5 μmol/kg): 12.5 µmol/kg
motor activity (accumulated unrepeated beam breaks) ([1]; t=0-30 min after injection): marked locomotor activation
motor activity (accumulated unrepeated beam breaks) ([1]; t=30-60 min after injection): the three highest doses significantly stimulated locomotion
motor activity (velocity) [2, 13]: dose-dependent and statistically significant reduction of motor activity
effect on apomorphine-induced hypomotility ([7]; apomorphine 0.16 μmol/kg s.c., OSU6162 120 μmol/kg i.p.): seemed to cause a marked drop in motor activity
effect on apomorphine-induced hypomotility [7, 14]: modest but apparently dose dependent reversal of apomorphineinduced hypomotility up to a dose of 60 μmol/kg
behavioural response ([8]; daytime, large illuminated arenas, not habituated): behavioural inhibition similar to that observed in darkness
behavioural response ([8]; rats habituated to large illuminated arenas): did not respond with any change in activity
effect on amphetamine-induced hyperactivity [9]: reverse amphetamine-induced hyperactivity

CCCN1CCC(c2cccc(S(C)(=O)=O)c2)CC1 [ACR16, 4-(3-methanesulfonylphenyl)-1-propyl-piperidine]
motor activity [10]: marked reduction in motor activity
motor activity (accumulated unrepeated beam breaks) ([1]; t=0-30 min after injection): this effect increased dose-dependently
motor activity (accumulated unrepeated beam breaks) ([1]; t=30-60 min after injection): the effect appeared to peak at the dose 50 μmol/kg
motor activity (accumulated unrepeated beam breaks) [1, 12]: caused an activation, although smaller than that of OSU6162
motor activity (velocity) [2, 13]: dose-dependent and statistically significant reduction of motor activity
effect on apomorphine-induced hypomotility ([7]; apomorphine 0.08 μmol/kg s.c., ACR16 i.p., higher dose): tended to inhibit activity further
effect on apomorphine-induced hypomotility [7, 14]: did not have any noticeable effect on apomorphine-induced hypoactivity
effect on amphetamine-induced hyperactivity [9]: reverse amphetamine-induced hyperactivity

CCN1CCCC1CNC(=O)c1cc(S(=O)(=O)CC)c(N)cc1OC (stereo not drawn) [amisulpride, reference compound]
motor activity (accumulated unrepeated beam breaks) [1, 12]: Neither haloperidol (0.1-0.8 μmol/kg) nor amisulpride (33-300 μmol/kg) had any significant effects on motor activity
motor activity (velocity) [2, 13]: inhibited motor activity slightly at the highest dose tested
effect on apomorphine-induced hypomotility ([7]; amisulpride 270 μmol/kg, s.c., data not shown): a mere tendency towards reversal of apomorphine-induced hypoactivity
effect on apomorphine-induced hypomotility [7, 14]: effectively counteracted apomorphine-induced hypoactivity
penetration of biological membranes [11]: poor penetration of biological membranes

CN1CCc2cccc3c2[C@H]1Cc1ccc(O)c(O)c1-3 [apomorphine, R-(−)-Apomorphine hydrochloride hemihydrate]
locomotor activity (velocity) ([2]; apomorphine 0.04-0.16 μmol/kg s.c., 5 min prior to registration): dose dependent inhibiting effect on locomotor activity
motor activity (velocity) ([2]; apomorphine higher dose-interval 0.16-64 μmol/kg s.c.): motor activity began to return towards a level similar to that observed in controls
dose of maximal inhibition of motor activity ([2]; apomorphine s.c.): 0.16 µmol/kg

O=C1CCc2ccc(OCCCCN3CCN(c4cccc(Cl)c4Cl)CC3)cc2N1 [aripiprazole, reference compound]
motor activity (accumulated unrepeated beam breaks) ([1]; t=0-30 min after injection): dose-dependent inhibition during the first 30 minutes after injection, which was statistically significant at the highest dose
motor activity (accumulated unrepeated beam breaks) ([1]; t=30-60 min after injection): did not affect locomotor activity
motor activity (velocity) [2, 13]: marked and dose-dependent inhibition on motor activity, that was statistically significant at all doses tested

O=C(CCCN1CCC(O)(c2ccc(Cl)cc2)CC1)c1ccc(F)cc1 [haloperidol, reference compound]
motor activity (accumulated unrepeated beam breaks) [1, 12]: Neither haloperidol (0.1-0.8 μmol/kg) nor amisulpride (33-300 μmol/kg) had any significant effects on motor activity
motor activity relative to control ([2]; haloperidol 0.8 μmol/kg, s.c.): approximately 7 % of control level
motor activity (velocity) [2, 13]: statistically significant inhibition at the highest dose
effect on apomorphine-induced hypomotility [7, 14]: no statistically significant effects on motor activity
